Like-named read-outs stand apart in the source and are kept apart here.
Tests used:
mice-embryo fibroblast [1] = assay: Stimulation of the production of soluble GAG in mice-embryo fibroblast cultures, uptake of ^35 S; format: cell-based, mice (strain C57 BL/6 stCrl); settings: Mus musculus, Fibroblast, 24 h, read-out: Δ % over non-treated controls, soluble GAG
Procedure: (§2) For this purpose, primary cultures of mice-embryo fibroblasts (strain C57 BL/6 stCrl) were prepared by mechanical and enzymatic dissociation (in Trypsin Versene mixture-Microbiological Associates) of the embryos taken from the mother on the 18th day of pregnancy. The culture medium is the Eagle medium modified by Dulbecco and supplemented with 15% of calf foetus serum. The incubation atmosphere consists of 5% of carbon dioxide in air at 37° C. 24 hours after innoculation, the medium is replaced by a new medium containing the drug under examination and the radioactive precursor (Na2^35 SO4) for the measurement of the synthesis both of soluble and tissue-bound GAG; the culture is left to incubate for a further 24 hours and then the culture medium (containing the soluble GAG) and fibroblasts (containing the tissue-bound GAG) are separated.
(§3) The soluble GAG are isolated from the culture medium by precipitation with a solution of 5% trichloroacetic acid in ice-water while the fibroblast residues, containing the tissue-bound GAG, after repeated washings with physiological solutions, are dissolved in [sequence] or VERSENE.
(§4) The quantity of ^35 S incorporated both in the soluble GAG and in the tissue-bound GAG are evaluated by the usual scintillation methods and expressed in cpm (counts per minute).
(§5) The tests were carried out five times for each sample in order to allow the results to be evaluated statistically.

mice-embryo fibroblast [2] = assay: Stimulation of the production of tissue-bound GAG in mice-embryo fibroblast cultures, uptake of ^35 S; format: cell-based, mice (strain C57 BL/6 stCrl); settings: Mus musculus, Fibroblast, 24 h, read-out: Δ % over non-treated controls, tissue-bound GAG
Procedure: as §2, §3, §4, §5

[3] = system: granuloma from cotton pellets; assay: Anti-inflammatory activity, granuloma induced by cotton pellets; format: in vivo, female albino rats of the Sprague Dawley strain; settings: 4 days; for Average dry weight of the granuloma (average ± s.e.): in mg (unit assumed)
Procedure: The test consists of evaluating the capacity of the substances under examination to inhibit the formation of granuloma following the subcutaneous implantation of extraneous bodies (in this case, cotton pellets). […] One group of animals was used as a control. […] After the subcutaneous implant of 2 cotton pellets each having a weight of 20 mg into the dorsal region, the animals were administered daily, for 4 consecutive days, with the substances under examination in the doses given above.

Acute toxicity in mice = assay: Acute toxicity in mice; design: species or system Swiss NMRI mice; settings: mouse, in vivo; for LD50 at 240 h: 10 days observation, read-out: DL50
Source text: Swiss NMRI mice having an average weight of 20±2 g, subdivided in groups of 10 animals (5 females and 5 males) were used for each dose and for each method of administration.
The methods of administration were: oral by means of gastric probe, intramuscular and endovenous into the caudal vein.
(§1) The observation time after administration was 10 days.

Acute toxicity in rats = assay: Acute toxicity in rats; design: species or system Sprague Dawley albino rats; settings: rat, in vivo; for LD50 at 240 h: 10 days observation, read-out: DL50
Source text: Sprague Dawley albino rats having an average weight of about 150 g, subdivided into groups of 10 animals (5 males and 5 females) were used for each dose and for each method of administration.
The methods of administration were: oral by means of a gastric probe, intramuscular and endovenous into the caudal vein.
as §1

physchem = settings: solid storage, Titre of glucosamine
[4] = im, intramuscular, max. dose 3000 mg/kg
[5] = iv, endovenous, max. dose 1500 mg/kg

Molecule N[C@H]1C(O)O[C@H](CO)[C@@H](O)[C@@H]1O.O=S(=O)(O)O (stereo partly shown) [Glucosamine sulphate, glucosamine sulphate] has an activation at 10 µg/mL (mice-embryo fibroblast [1]) of 24.3%, an activation at 50 µg/mL (mice-embryo fibroblast [1]) of 96% and an activation at 100 µg/mL (mice-embryo fibroblast [1]) of 71.2%. It also gave an activation at 10 µg/mL (mice-embryo fibroblast [2]) of 32.7%, an activation at 50 µg/mL (mice-embryo fibroblast [2]) of 75.6% and an activation at 100 µg/mL (mice-embryo fibroblast [2]) of 94.7%. For the same molecule, the “% Inhibition of granuloma” value ([3]; 300 mg/kg/os daily) was 40.9%, the “Average dry weight of the granuloma (average ± s.e.)” value ([3]; 300 mg/kg/os daily) was 91.2 ± 10.8 and the “% Inhibition of granuloma” value ([3]; 600 mg/kg/os daily) was 54.1%. For the same molecule, the “Average dry weight of the granuloma (average ± s.e.)” value ([3]; 600 mg/kg/os daily) was 70.7 ± 7.9, the LD50 at 240 h (Acute toxicity in mice; im, intramuscular) was > 3000 mg/kg and the mortality at 240 h (Acute toxicity in mice; [4]) was 0%. For the same molecule, the LD50 at 240 h (Acute toxicity in mice; iv, endovenous) was > 1500 mg/kg, the mortality at 240 h (Acute toxicity in mice; [5]) was 0% and the LD50 at 240 h (Acute toxicity in mice; oral) was > 5000 mg/kg. The mortality at 240 h (Acute toxicity in mice; oral, max. dose 5000 mg/kg) was 0%, the LD50 at 240 h (Acute toxicity in rats; im, intramuscular) was > 3000 mg/kg and the mortality at 240 h (Acute toxicity in rats; [4]) was 0%. The LD50 at 240 h (Acute toxicity in rats; iv, endovenous) was > 1500 mg/kg, the mortality at 240 h (Acute toxicity in rats; [5]) was 0% and the LD50 at 240 h (Acute toxicity in rats; oral) was > 5000 mg/kg. For the same molecule, the mortality at 240 h (Acute toxicity in rats; oral, max. dose 5000 mg/kg) was 0%, the Appearance (15° C., 30% R.H., 0 days) was 1 and the Titre of glucosamine (15° C., 30% R.H., 0 days) was 98.7%. The Appearance (15° C., 30% R.H., 7 days) was 1, the Appearance (15° C., 30% R.H., 15 days) was 1 and the Appearance (15° C., 30% R.H., 30 days) was 1. The Appearance (15° C., 30% R.H., 60 days) was 1, the Appearance (15° C., 30% R.H., 120 days) was 2 and the Appearance (15° C., 30% R.H., 360 days) was 2-3. For the same molecule, the Appearance (15° C., 45% R.H., 0 days) was 1, the Appearance (15° C., 45% R.H., 7 days) was 1 and the Appearance (15° C., 45% R.H., 15 days) was 1. It also gave an Appearance (15° C., 45% R.H., 30 days) of 1, an Appearance (15° C., 45% R.H., 60 days) of 2 and an Appearance (15° C., 45% R.H., 120 days) of 4. It also gave an Appearance (15° C., 45% R.H., 360 days) of 6, an Appearance (15° C., 60% R.H., 0 days) of 1 and an Appearance (15° C., 60% R.H., 3 days) of 1. It also gave an Appearance (15° C., 60% R.H., 6 days) of 3, an Appearance (15° C., 60% R.H., 12 days) of 5 and an Appearance (15° C., 60% R.H., 24 days) of 6. It also gave an Appearance (15° C., 60% R.H., 36 days) of 6, an Appearance (15° C., 60% R.H., 48 days) of 6 and an Appearance (25° C., 30% R.H., 0 days) of 1. It also gave a Titre of glucosamine (25° C., 30% R.H., 0 days) of 99.6%, an Appearance (25° C., 30% R.H., 7 days) of 1 and an Appearance (25° C., 30% R.H., 15 days) of 1. The Appearance (25° C., 30% R.H., 30 days) was 1, the Appearance (25° C., 30% R.H., 60 days) was 2 and the Appearance (25° C., 30% R.H., 120 days) was 3. It also gave an Appearance (25° C., 30% R.H., 360 days) of 4, an Appearance (25° C., 45% R.H., 0 days) of 1 and a Titre of glucosamine (25° C., 45% R.H., 0 days) of 100.5%. The Appearance (25° C., 45% R.H., 3 days) was 1, the Appearance (25° C., 45% R.H., 6 days) was 1 and the Appearance (25° C., 45% R.H., 12 days) was 2. For the same molecule, the Appearance (25° C., 45% R.H., 24 days) was 3, the Appearance (25° C., 45% R.H., 36 days) was 5 and the Appearance (25° C., 45% R.H., 48 days) was 6. The “Time to complete decomposition” value (25° C., 60% R.H.) was 36 h, the Appearance (25° C., 60% R.H., 0 hours) was 1 and the Appearance (25° C., 60% R.H., 2 hours) was 1. It also gave an Appearance (25° C., 60% R.H., 4 hours) of 1, an Appearance (25° C., 60% R.H., 8 hours) of 2 and an Appearance (25° C., 60% R.H., 16 hours) of 3. For the same molecule, the Appearance (25° C., 60% R.H., 24 hours) was 4, the Appearance (25° C., 60% R.H., 36 hours) was 6 and the Titre of glucosamine (solid storage, 24 h) was 44.6%. For the same molecule, the Titre of glucosamine (solid storage, 72 h) was 100.3%, the Titre of glucosamine (solid storage, 576 h) was 74.5% and the Titre of glucosamine (solid storage, 864 h) was 29.6%. For the same molecule, the remaining at 8 h (physchem) was 95.8%, the remaining at 16 h (physchem) was 73.8% and the remaining at 72 h (physchem) was 98.4%. It also gave a remaining at 168 h (physchem) of 98.3%, a remaining at 360 h (physchem) of 100% and a remaining at 720 h (physchem) of 99.4%. For the same molecule, the remaining at 1440 h (physchem) was 98.1%.

Source: patent US4642340A, “Stable compounds of glucosamine sulphate” (Rotta Research Laboratorium S.p.A., priority 1981, dated 1987)
